This note sets out measurements from patent publication US20040106545A1, “Compounds and methods for modulating cell adhesion” (priority 1996, published 2004).

For one data set, the target named is L1 (Homo sapiens, UniProt P32004). The data set can be described thus: Neurite outgrowth on L1 expressing 3T3 monolayers (Example 2). The settings on record: 500 μg/mL. It is filed as cell-based, mouse. Further details: expressed in transfected cells; host or cells: 3T3 fibroblasts (monolayer); mouse post-natal day 3 cerebellar neurons on top.
L1, sequence (P32004 20-1257): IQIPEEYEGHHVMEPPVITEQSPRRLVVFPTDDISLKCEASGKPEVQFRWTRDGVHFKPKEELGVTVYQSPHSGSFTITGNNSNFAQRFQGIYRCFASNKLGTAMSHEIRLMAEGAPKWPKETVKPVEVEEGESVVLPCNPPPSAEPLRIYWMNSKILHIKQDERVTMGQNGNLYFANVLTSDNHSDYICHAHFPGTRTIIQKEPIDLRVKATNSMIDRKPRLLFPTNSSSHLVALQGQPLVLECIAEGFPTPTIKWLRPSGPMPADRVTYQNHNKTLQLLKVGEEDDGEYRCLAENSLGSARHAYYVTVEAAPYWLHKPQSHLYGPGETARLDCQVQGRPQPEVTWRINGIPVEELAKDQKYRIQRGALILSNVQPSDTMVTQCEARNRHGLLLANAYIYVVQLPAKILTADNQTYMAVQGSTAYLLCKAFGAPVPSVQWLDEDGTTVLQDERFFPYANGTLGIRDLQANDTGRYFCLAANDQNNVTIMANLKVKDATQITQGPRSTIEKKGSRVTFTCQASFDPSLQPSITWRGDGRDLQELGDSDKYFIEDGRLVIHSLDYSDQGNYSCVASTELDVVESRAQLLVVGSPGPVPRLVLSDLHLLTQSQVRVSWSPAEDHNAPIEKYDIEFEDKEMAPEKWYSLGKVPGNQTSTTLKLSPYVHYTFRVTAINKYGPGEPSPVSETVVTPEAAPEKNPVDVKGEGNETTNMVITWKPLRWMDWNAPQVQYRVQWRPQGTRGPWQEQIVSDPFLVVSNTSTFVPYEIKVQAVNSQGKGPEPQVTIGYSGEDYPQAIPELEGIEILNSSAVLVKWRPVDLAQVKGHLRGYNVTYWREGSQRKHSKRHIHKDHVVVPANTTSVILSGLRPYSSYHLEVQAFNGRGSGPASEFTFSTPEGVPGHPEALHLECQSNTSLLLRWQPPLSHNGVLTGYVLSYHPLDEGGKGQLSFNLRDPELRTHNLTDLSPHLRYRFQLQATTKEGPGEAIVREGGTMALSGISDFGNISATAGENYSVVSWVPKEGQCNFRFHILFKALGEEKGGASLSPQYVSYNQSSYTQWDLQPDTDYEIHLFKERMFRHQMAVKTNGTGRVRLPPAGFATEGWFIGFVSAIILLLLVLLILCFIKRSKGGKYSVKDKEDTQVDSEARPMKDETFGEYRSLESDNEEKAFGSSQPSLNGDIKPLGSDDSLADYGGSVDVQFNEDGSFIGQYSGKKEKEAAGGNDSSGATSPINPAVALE
Data set [1] has as its system MKL-F cells, breast cancer tumors. In words: Breast cancer tumors grown in nude mice. It is filed as in vivo, mouse. The method, then: Breast cancer tumors were also grown in nude mice, as described above. After implanting tumor cells into the mammary fat pad, mice were injected once daily for four days with either the representative modulating agent N—Ac-CHAVC-NH2 (SEQ ID NO:10) or saline as a control. Mice were sacrificed 24 hours after the last injection, and tumors were photographed. […] These tumors are well vascularized.
MKL-F cells were injected into mammary fat pad, as described above, and the tumors were grown for 21 days before injection. Mice were then injected once daily for four days with either 20 mg/kg of the representative modulating agent N—Ac-CHAVC-NH2 (SEQ ID NO:10) or saline as a control. Mice were sacrificed 21 days after the last injection. Tumor volume was measured at day 18 following injection of cells, day 22 (following the first injection of modulating agent), and days 29, 32, 36, 39 and 42.

A further data set deals with mice. In words: Acute toxicity study in mice. It is filed as in vivo, mouse. As to the method: Mice were injected intraperitoneally for seven consecutive days with 20 mg/kg of N—Ac-CHAVC-NH2 (SEQ ID NO:10) and sacrificed 24 hr after treatment.
Mice were injected intraperitoneally with 125 mg/kg of N—Ac-CHAVC-NH2 (SEQ ID NO:10) for three consecutive days and sacrificed on the fourth day.
Mice were injected intravenously with either a saline control or 200 mg/kg of N—Ac-CHAVC-NH2 (SEQ ID NO:10). Mice were sacrificed after 24 hours, or allowed a 14-day recovery period.

For another data set, the system named is OVCAR-3. The data set can be described thus: Disruption of OVCAR-3 ovarian cancer cell adhesion. It is filed as cell-based, human. The settings on record: 1, 0.1, or 0.01 mg/ml, up to 48 hours. The method, then: The human ovarian cancer cell line OVCAR-3, which expresses E-cadherin, was used in these experiments. Cells were cultured in RPMI supplemented with insulin and containing 20% FCS. Cells were grown in T-250 culture flasks and maintained by periodic subculturing. Cells were harvested from flasks and seeded in individual wells of 96-well culture dishes (surface area of each well was 0.32 cm^2) at a density of 50,000 cells per well in 0.1 ml media containing the cyclic peptides (at concentrations of 1, 0.1, or 0.01 mg/ml). Media control wells were also established. Cultures were evaluated periodically by microscopic examination under both bright field and phase contrast conditions, and were maintained for 48 hours.

The subject of data set [2] is 3T3 cells not expressing N-cadherin, N-CAM, or L1 (control cells). The data set can be described thus: Neurite outgrowth on control 3T3 monolayers (Example 2). The settings on record: 500 μg/ml. It is filed as cell-based, mouse. As to the method: Neurons were cultured on monolayers of 3T3 cells transfected with cDNA encoding N-cadherin essentially as described by Doherty and Walsh, Curr. Op. Neurobiol. 4:49-55, 1994; Williams et al., Neuron 13:583-594, 1994; Hall et al., Cell Adhesion and Commun. 3:441-450, 1996; Doherty and Walsh, Mol. Cell. Neurosci. 8:99-111, 1994; Safell et al., Neuron 18:231-242, 1997. Briefly, monolayers of control 3T3 fibroblasts and 3T3 fibroblasts that express N-cadherin were established by overnight culture of 80,000 cells in individual wells of an 8-chamber well tissue culture slide. 3000 cerebellar neurons isolated from post-natal day 3 mouse brains were cultured for 18 hours on the various monolayers in control media (SATO/2%FCS), or media supplemented with various concentrations of the cyclic peptide N—Ac-CHAVC-NH2 (SEQ ID NO:10) or a control peptide without the HAV sequence (N—Ac-CHGVC-NH2; SEQ ID NO:11). The cultures were then fixed and stained for GAP43, which specifically binds to the neurons and their neurites. The length of the longest neurite on each GAP43 positive neuron was then measured by computer assisted morphometry.

Another data set deals with SKOV3 tumors. In words: Human ovarian (SKOV3) tumors grown in nude mice: tumor volume and histology. It is filed as in vivo, mouse. The method, then: SKOV3 cells (ATCC) were grown to 70% confluence in Minimum Essential Medium (Life Technologies, Grand Island, N.Y.) supplemented with 10% Fetal Bovine Serum (Wisent, St. Bruno, Quebec) in a humidified atmosphere containing 5% CO2. Cells were then dissociated with 0.02% PBS/EDTA. Total cell count and viable cell number was determined by trypan blue stain and a hemacytometer.
Approximately 1×10^7 cells were resuspended in 400 μl saline and injected in 6-week-old CD-1 nude mice (female, Charles River) subcutaneously. After 20 days of continuous tumor growth, tumor size was about 100 mm^3. The tumor-bearing animals were then injected intraperitoneally every day for 4 consecutive days with 20 mg/kg of the representative peptide modulating agent N—Ac-CHAVC-NH2 (SEQ ID NO:10) and saline, for experimental and control respectively. Mice were sacrificed by cervical dislocation 4 days after final injection.
Tumor tissue was dissected and fixed in PBS with 4% paraformaldehyde for 48 hours. Specimens were then dehydrated in a series of alcohol incubations, and embedded in paraffin wax. Tissues were sectioned, rehydrated and stained with hematoxylin/eosin for morphological purposes. Representative sections obtained from treated and untreated mice are shown in FIGS. 28B and 28A, respectively.
Within similar experiments, tumor-bearing nude mice as described above were injected intraperitoneally with 2 mg/kg of the representative peptide modulating agent N—Ac-CHAVC-NH2 (SEQ ID NO:10) and saline, for experimental and control respectively. Injections were performed every day for 4 days. Mice were sacrificed 24 hours after the last injection. Tumor tissue was fixed, sectioned and stained as described above. Representative sections obtained from treated and untreated mice are shown in FIGS. 30A and 30B, respectively.
In a similar study, the effect of N—Ac-CHAVC-NH2 (SEQ ID NO:10) on ovarian tumor growth was evaluated at 2 mg/kg and 0.2 mg/kg. Mice were treated as described above with saline alone, 2 mg/kg peptide or 0.2 mg/kg peptide once per day for 5 days. The percent change in tumor volume (relative to the tumor size at day 1) was determined.

Take `CC(=O)N[C@H]1CSSC[C@@H](C(N)=O)NC(=O)[C@H](C(C)C)NC(=O)[C@H](C)NC(=O)[C@H](Cc2c[nH]cn2)NC1=O` [N—Ac—CHAVC—NH2, N-Ac-Cys-His-Ala-Val-Cys-NH2]: on L1, the “inhibition of neurite outgrowth on 3T3 cells expressing L1” value is “did not inhibit neurite outgrowth”. The breast tumor growth entry in data set [1] (once daily for four days) is recorded as “slow tumor growth”. Further, the “appearance of breast tumors (blood vessels)” value in data set [1] (once daily for four days (20 mg/kg), 24 hours after last injection) was “extensive rupturing of blood vessels”. Moreover, the “gross or histopathological findings” value is on record as “No gross or histopathological findings related to the treatment were found” with mice (intraperitoneally, 125 mg/kg, three consecutive days, sacrificed on the fourth day); “No gross or histopathological findings related to the treatment were found” in the data set with mice (intraperitoneally, seven consecutive days, 20 mg/kg, sacrificed 24 hr after treatment); “no gross or histopathological findings related to the treatment were found” in the data set with mice (intravenously, 200 mg/kg, sacrificed after 24 hours or 14-day recovery). In addition, the mortality entry in the data set on mice (intravenously, 200 mg/kg) is reported as “no animals died during the study”. The “disruption of OVCAR-3 adhesion” value in the data set with OVCAR-3 was “inactive”. Moreover, the “inhibition of neurite outgrowth on control 3T3 cells” value in data set [2] was “did not inhibit neurite outgrowth”. In addition, the “change in tumor volume” value with SKOV3 tumors (0.2 mg/kg once per day for 5 days) is listed as “grew at a slower rate than tumors treated with saline”; with SKOV3 tumors (2 mg/kg once per day for 5 days), “slight reduction in volume over the five day study”. Moreover, the “effect on tumor blood vessels and tumor growth” value with SKOV3 tumors (2 mg/kg intraperitoneally every day for 4 days, Von Willebrand Factor VIII stain) is “capable of damaging tumor blood vessels and stopping tumor growth in vivo”. The “tumor growth / tumor size” value in the data set with SKOV3 tumors (20 mg/kg intraperitoneally every day for 4 consecutive days) is “prevents detectable tumor growth and results in a substantial decrease in tumor size”.
